Measurements: patent publication US6746668B2, “Apo-2 ligand” (Genentech, Inc., priority 1996, dated 2004)

Key:
[1] = system: HeLa (human cervical carcinoma); test: Apoptosis by FACS, HeLa cells; assay type: cell-based
Method: (§1) The 9D cells (FIG. 2B), Raji cells (FIG. 2C), and Jurkat cells (FIG. 2D) were incubated (1×10^6 cells/well) for 24 hours with a media control (left panels), Apo-2 ligand (3 μg/ml, prepared as described in Example 3) (center panels), or […], CH11 (1 μg/ml) (right panels). The cells were then washed, stained with PI and with […] (FITC)-conjugated annexin V (purchased from Brand Applications) and analyzed by flow cytometry. Cells negative for both PI and annexin V staining (quadrant 3) represent live cells; PI-negative, annexin V-positive staining cells (quadrant 4) represent early apoptotic cells; PI-positive, annexin V-positive staining cells (quadrant 2) represent primarily cells in late stages of apoptosis. […]
(§2) In the assay, 1×10^6 cells of each cell line were incubated for 24 hours with a media control, Apo-2 ligand (3 μg/ml, prepared as described in Example 3), or anti-Apo-1 monoclonal antibody, CH11 (1 μg/ml). Following the incubation, apoptosis was measured by FACS analysis, as described in Example 4.

[2] = system: 9D cells (EBV-transformed human peripheral blood B cells); test: Apoptosis by FACS (PI / FITC-annexin V), 9D cells; assay type: cell-based; conditions: 24 hours, CH11 1 μg/ml
Method: (§3) The effects of the Apo-2 ligand on the 9D cells, as well as on Raji cells (human Burkitt's lymphoma B cell line, ATCC CCL 86) and Jurkat cells (human acute T cell leukemia cell line, ATCC TIB 152) were further analyzed by FACS. The FACS analysis was conducted, using established criteria for apoptotic cell death, namely, the relation of fluorescence staining of the cells with two markers: (a) propidium iodide (“PI”) dye, which stains apoptotic but not live cells, and (b) a fluorescent derivative of the protein, annexin V, which binds to the exposed phosphatidylserine found on the surface of apoptotic cells, but not on live cells [Darzynkiewicz et al., Methods in Cell Biol., 41:15-38 (1994); Fadok et al., J. Immunol., 148:2207-2214 (1992); Koopman et al., Blood, 84:1415-1420 (1994)].
(§4) The 9D cells (FIG. 2B), Raji cells (FIG. 2C), and Jurkat cells (FIG. 2D) were incubated (1×10^6 cells/well) for 24 hours with a media control (left panels), Apo-2 ligand (3 μg/ml, prepared as described in Example 3) (center panels), or […], CH11 (1 μg/ml) (right panels). The cells were then washed, stained with PI and with […] (FITC)-conjugated annexin V (purchased from Brand Applications) and analyzed by flow cytometry. […]

[3] = system: Jurkat cells (human acute T cell leukemia cell line); test: Apoptosis by FACS (PI / FITC-annexin V), Jurkat cells; assay type: cell-based; conditions: 24 hours, CH11 1 μg/ml
Method: as §3, §4

[4] = system: U-937 (human hystiocytic lymphoma); test: Apoptosis by FACS, U-937 cells; assay type: cell-based
Method: as §1, §2

[5] = system: 293 (adenovirus-transformed human embryonic kidney cells); test: Apoptosis by FACS, 293 cells; assay type: cell-based
Method: as §1, §2

[6] = system: MCF7 (human breast carcinoma); test: Apoptosis by FACS, MCF7 cells; assay type: cell-based
Method: as §1, §2

[7] = system: peripheral blood T lymphocytes; test: Apoptosis by FACS, peripheral blood T cells; assay type: cell-based, human; conditions: for % apoptotic cells: Apo-2L 3 μg/ml, mean ±SE
[8] = system: A549 (human lung carcinoma); test: Apoptosis by FACS, A549 cells; assay type: cell-based
Method: as §1, §2

[9] = system: 9D cells; test: Time course and dose-dependence of cell death (dead/live counts, hemocytometer), 9D cells; assay type: cell-based, human
Method: To examine the time-course of the Apo-2 ligand apoptotic activity, 9D cells were incubated in microtiter dishes (5×10^4 cells/well) with a media control or Apo-2 ligand (3 μg/ml, prepared as described in Example 3) for a period of time ranging from 0 hours to 50 hours. Following the incubation, the numbers of dead and live cells were determined by microscopic examination using a hemocytometer.
To determine dose-dependency of Apo-2 ligand-induced cell death, 9D cells were incubated (5×10^4 cells/well) for 24 hours with serial dilutions of a media control or Apo-2 ligand (prepared as described in Example 3). The numbers of dead and live cells following the incubation were determined as described above. The results are illustrated in FIG. 3B. Specific apoptosis was determined by subtracting the % apoptosis in the control from % apoptosis in Apo-2 ligand treated cells. Half-maximal activation of apoptosis occurred at approximately 0.1 μg/ml (approximately 1 nM), and maximal induction occurred at about 1 to about 3 μg/ml (approximately 10 to 30 nM).

[10] = system: 9D cells; test: Internucleosomal DNA fragmentation, 9D cells; assay type: cell-based, human; conditions: 6 hours, Apo-2 ligand 3 μg/ml
Method: (§5) The activation of internucleosomal DNA fragmentation by Apo-2 ligand was also analyzed. Jurkat cells (left lanes) and 9D cells (right lanes) were incubated (2×10^6 cells/well) for 6 hours with a media control or Apo-2 ligand (3 μg/ml, prepared as described in Example 3), The DNA was then extracted from the cells and labeled with ^32P-ddATP using terminal transferase. The labeled DNA samples were subjected to electrophoresis on 2% agarose gels and later analyzed by autoradiography [Moore et al., Cytotechnology, 17:1-11 (1995)]. […] Such DNA fragmentation is characteristic of apoptosis [Cohen, Advances in Immunol., 50:55-85 (1991)].

[11] = system: Raji cells (human Burkitt's lymphoma B cell line); test: Apoptosis by FACS (PI / FITC-annexin V), Raji cells; assay type: cell-based; conditions: 24 hours, CH11 1 μg/ml
Method: as §3, §4

[12] = system: peripheral blood B lymphocytes; test: Apoptosis by FACS, peripheral blood B cells; assay type: cell-based, human; conditions: for % apoptotic cells: 3 days, Apo-2L 3 μg/ml, mean ±SE
Method: Peripheral blood mononuclear cells (“PBMC”) were isolated from the blood of human donors by Ficoll density gradient centrifugation using Lymphocyte Separation Medium (LSM®, Organon Teknika). An isolated population of T cells was prepared from the PBMC by removal of B cells through surface Ig binding to an anti-Ig column and removal of monocytes through Fc receptor binding to an Ig column (R & D Systems). An isolated population of B cells was prepared from the PBMC by complement-mediated elimination of T cells reacted with the anti-CD3 antibody produced by the OKT3 myeloma (ATCC, CRL 8001) and of monocytes reacted with a monocyte-specific antibody produced by the 4F2C13 hybridoma (ATCC, HB 22). Additional monocyte removal was accomplished by adherence to plastic.
The freshly isolated peripheral blood B or T cells (1×10^6 cells/well) were cultured for 3 days in the presence of a media control or Apo-2 ligand (3 μg/ml, prepared as described in Example 3). For activation, B cells were treated simultaneously with lipopolysaccharide ([…], 1 μg/ml), and T cells were treated with phorbol myristate acetate (“PMA”, 10 ng/ml) plus ionomycin (1 μg/ml) (Sigma). For interleukin-2 (“IL-2”) pretreatment, T cells were cultured for 3-5 days in the presence of IL-2 (50 U/ml) (Genzyme) before exposure to Apo-2 ligand. Apoptosis was determined using FACS analysis essentially as described above in Example 4. However, B cells were gated by anti-CD19/CD20 antibodies (Jackson Immunoresearch), and T cells were gated by anti-CD4/CD8 antibodies (Jackson Immunoresearch). The results are shown in Table 2 below, representing means ±SE of independent experiments [B lymphocytes—9 experiments; T lymphocytes—8 experiments; T lymphocytes plus IL-2-5 experiments], in which 50,000 cells were analyzed per data point. Statistical analysis was performed using the student t-test. In Table 2, a=p<0.05 and b=p<0.02 relative to the respective control.

[13] = system: Jurkat cells; test: Internucleosomal DNA fragmentation, Jurkat cells; assay type: cell-based, human; conditions: 6 hours, Apo-2 ligand 3 μg/ml
Method: as §5

[14] = system: ME-180 (human cervical carcinoma); test: Apoptosis by FACS, ME-180 cells; assay type: cell-based
Method: as §1, §2

[15] = Apo-2 ligand as compared to CH11 anti-Apo-1 antibody

“Apo-2L: purified, soluble recombinant human Apo-2 ligand: His10-tagged residues 114-281 of SEQ ID NO:1, expressed in baculovirus-infected Sf9 cells (Example 3)” was tested, and the “% apoptotic cells” value ([1]; 24 hours, Apo-2L 3 μg/ml, CH11 1 μg/ml, control 5.3) was 18.6%, the “sensitivity to induction of apoptosis” value [1, 15] was “equally sensitive” and the “% apoptotic cells” value ([2]; Apo-2L 3 μg/ml, control 22.5) was 92.4%. For the same substance, the “induction of apoptosis (annexin V binding, PI uptake), in words” value ([2]; Apo-2 ligand 3 μg/ml) was “induced apoptosis”, the “% apoptotic cells” value ([3]; Apo-2L 3 μg/ml, control 5.9) was 77.0% and the “induction of apoptosis (annexin V binding, PI uptake), in words” value ([3]; Apo-2 ligand 3 μg/ml) was “induced a similar response”. The “% apoptotic cells” value ([4]; 24 hours, Apo-2L 3 μg/ml, CH11 1 μg/ml, control 3.6) was 62.3%, the “sensitivity to induction of apoptosis” value [4, 15] was “markedly more sensitive” and the “sensitivity to induction of apoptosis” value [5] was “resistant”. For the same substance, the “% apoptotic cells” value ([5]; 24 hours, Apo-2L 3 μg/ml, CH11 1 μg/ml, control 12.3) was 12.2%, the “% apoptotic cells” value ([6]; 24 hours, Apo-2L 3 μg/ml, CH11 1 μg/ml, control 39.9) was 47.3% and the “sensitivity to induction of apoptosis” value [6, 15] was “equally sensitive”. For the same substance, the “induction of apoptosis, in words” value ([7]; T cells activated with PMA and ionomycin) was “induced significant apoptosis”, the “% apoptotic cells” value ([7]; T lymphocytes + PMA 10 ng/ml / ionomycin 1 μg/ml, 3 days, control 40.3 ± 4.4) was 54.2% and the “% apoptotic cells” value ([7]; T lymphocytes, IL-2 (50 U/ml, 3-5 days) pretreatment, 5 experiments, control 13.7 ± 1.2) was 34.5%. The “% apoptotic cells” value ([7]; T lymphocytes, no treatment, 3 days, 8 experiments, control 6.3 ± 0.6) was 8.2 ± 0.8%, the “sensitization to Apo-2 ligand-induced death, in words” value ([7]; peripheral T cells pretreated with IL-2) was “did sensitize” and the “% apoptotic cells” value ([8]; 24 hours, Apo-2L 3 μg/ml, CH11 1 μg/ml, control 16.5) was 74.6%. For the same substance, the “sensitivity to induction of apoptosis” value [8, 15] was “markedly more sensitive”, the “half-maximal activation of apoptosis” value ([9]; 24 hours, specific apoptosis (control subtracted)) was “approximately 0.1 μg/ml” and the EC50 ([9]; 24 hours, specific apoptosis (control subtracted), read-out: half-maximal activation of apoptosis) was ~1 nM. For the same substance, the “time to maximal levels of cell death” value ([9]; Apo-2 ligand 3 μg/ml, 0 to 50 hours) was ≤ 24 h, the “internucleosomal DNA fragmentation” value [10] was “induced internucleosomal DNA fragmentation” and the “% apoptotic cells” value ([11]; Apo-2L 3 μg/ml, control 35.9) was 73.4%. For the same substance, the “induction of apoptosis (annexin V binding, PI uptake), in words” value ([11]; Apo-2 ligand 3 μg/ml) was “induced a similar response”, the “induction of apoptosis, in words” value ([12]; B cells activated by LPS) was “induced significant apoptosis” and the “% apoptotic cells” value ([12]; B lymphocytes + LPS 1 μg/ml, control 44.8 ± 2.8) was 55.9%. For the same substance, the “% apoptotic cells” value ([12]; B lymphocytes, no treatment, 9 experiments, control 40.1 ± 4.1) was 53.2%, the “induction of apoptosis, in words” value ([12]; unstimulated B cells) was “induced significant apoptosis” and the “internucleosomal DNA fragmentation” value [13] was “induced internucleosomal DNA fragmentation”. The “sensitivity to induction of apoptosis” value [14] was “quite sensitive” and the “% apoptotic cells” value ([14]; 24 hours, Apo-2L 3 μg/ml, CH11 1 μg/ml, control 8.6) was 80.7%.
